The record followed here is patent EP2366702A1, “New oxadiazole derivatives” (Almirall, S.A., priority 2010, dated 2011).

Chain of S1P1 (P21453 whole entry, species assumed): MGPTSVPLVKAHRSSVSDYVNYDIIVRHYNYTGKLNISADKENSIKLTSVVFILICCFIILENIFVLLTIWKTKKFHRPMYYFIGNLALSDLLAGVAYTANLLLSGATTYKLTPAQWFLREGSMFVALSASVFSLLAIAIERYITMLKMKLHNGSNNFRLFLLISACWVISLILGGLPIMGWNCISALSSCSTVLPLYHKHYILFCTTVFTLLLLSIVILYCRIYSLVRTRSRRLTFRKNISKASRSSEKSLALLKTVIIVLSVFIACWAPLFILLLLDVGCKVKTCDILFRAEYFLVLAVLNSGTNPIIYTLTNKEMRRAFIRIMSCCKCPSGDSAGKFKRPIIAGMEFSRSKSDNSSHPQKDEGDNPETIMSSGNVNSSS

This test addresses S1P1 (Homo sapiens, UniProt P21453). The test is described as follows: 35S-GTPyS binding assay. Type of test: biochemical. The conditions noted are these: membranes; 10µM S1P used as 100% maximum efficacy; 90 min at room temperature. As to the method: The effect of the compounds was measured using a 35S-GTPyS binding assay. Briefly, membranes were incubated in a buffer containing 20 mM HEPES pH 7.4, 100 mM NaCl, 10 mM MgCl2, 10µM GDP, 50µg/ml saponin and 0.2% fatty acid-free BSA at various concentrations (0.1nM-10µM) and 0.1nM 35S-GTPyS. 10µM S1P was used as 100% maximum efficacy. The assay was incubated for 90 min at room temperature with gentle mixing, and terminated by filtrating the reaction mixture through GF/C filter plates using the Manifold Filtration System. The filters were immediately washed with sodium phosphate pH 7.4 buffers. After drying the filter plate's scintillant liquid were added to each well and 35S-GTPyS binding was measured on a Trilux Scintillation Counter.
For orientation: EC50 means the concentration that produces a half-maximal response. The low end stands for higher potency in that assay, the high end for lower potency in that assay. Regarding `Cc1cc(-c2noc(-c3nn(C)c4c3CCC(C)(C)C4)n2)cc(C)c1CCNCCn1cncn1` [Example 6, (2-{2,6-dimethyl-4-[5-(1,6,6-trimethyl-4,5,6,7-tetrahydro-1H-indazol-3-yl)-1,2,4-oxadiazol-3-yl]phenyl}ethyl)[2-(1H-1,2,4-triazol-1-yl)ethyl]amine], the half-maximal effective concentration (EC50) was found to be 19.2 nM.

`Cc1cc(-c2noc(-c3nn(C)c4c3CCC(C)(C)C4)n2)cc(C)c1CCP(=O)(O)O` [Example 21, (2-{2,6-dimethyl-4-[5-(1,6,6-trimethyl-4,5,6,7-tetrahydro-1H-indazol-3-yl)-1,2,4-oxadiazol-3-yl]phenyl}ethyl)phosphonic acid] showed an EC50 of 3.08 nM.

With `Cc1cc(-c2noc(-c3nn(C)c4c3CCC(C)(C)C4)n2)cc(C)c1CCNC(=O)CN` [Example 2, N-1-(2-{2,6-dimethyl-4-[5-(1,6,6-trimethyl-4,5,6,7-tetrahydro-1H-indazol-3-yl)-1,2,4-oxadiazol-3-yl]phenyl}ethyl)glycinamide], the EC50 was found to be 1.99 nM. This EC50 is about 1.5-fold lower than that of the molecule before.

`Cc1cc(-c2noc(-c3nn(C)c4c3CCC(C)(C)C4)n2)cc(C)c1CCn1nccc1C(=O)O` [Example 24, 1-(2-{2,6-dimethyl-4-[5-(1,6,6-trimethyl-4,5,6,7-tetrahydro-1H-indazol-3-yl)-1,2,4-oxadiazol-3-yl]phenyl}ethyl)-1H-pyrazole-5-carboxylic acid] yielded an EC50 of 10.3 nM.

As for `Cc1cc(-c2noc(-c3nn(C)c4c3CCC(C)(C)C4)n2)cc(C)c1CCn1cc(C(=O)O)cn1` [Example 22, 1-(2-{2,6-dimethyl-4-[5-(1,6,6-trimethyl-4,5,6,7-tetrahydro-1H-indazol-3-yl)-1,2,4-oxadiazol-3-yl]phenyl}ethyl)-1H-pyrazole-4-carboxylic acid], the concentration giving a half-maximal response (EC50) came to 6.37 nM. This EC50 lies about 1.6-fold lower than the previous one.

The molecule `Cc1cc(-c2noc(-c3nn(C)c4c3CCC(C)(C)C4)n2)cc(C)c1CCC(C)(C)O` [Example 17, 4-{2,6-dimethyl-4-[5-(1,6,6-trimethyl-4,5,6,7-tetrahydro-1H-indazol-3-yl)-1,2,4-oxadiazol-3-yl]phenyl}-2-methylbutan-2-ol] had an EC50 of 37.5 nM.

As to `Cc1cc(-c2noc(-c3nn(C)c4c3CCC(C)(C)C4)n2)cc(C)c1CCn1cncn1` [Example 16, 3-(3-{3,5-dimethyl-4-[2-(1H-1,2,4-triazol-1-yl)ethyl]phenyl}-1,2,4-oxadiazol-5-yl)-1,6,6-trimethyl-4,5,6,7-tetrahydro-1H-indazole], it took 12.1 nM to reach a half-maximal effect (EC50).
